In PMC11167047 (Cell Death Discovery, 2024):

Legend:
Assay in all cases: kinome screen (33PanQinase)
Type in all cases: biochemical
[1] = molecular target: T1, DAPK3 (Homo sapiens, UniProt O43293)
T1 construct: purchased Reaction Biology Europe GmbH (formerly ProQinase)
Description: (§1) The Kinome Screening was performed by Reaction Biology Europe GmbH (http://reactionbiology.com; Freiburg i. Br., Germany).

[2] = molecular target: T2, MAPKAPK3 (Homo sapiens, UniProt Q16644)
T2 construct: purchased Reaction Biology Europe GmbH (formerly ProQinase)
Description: as §1

[3] = molecular target: T3, TGFBR1 (Homo sapiens, UniProt P36897)
T3 construct: purchased Reaction Biology Europe GmbH (formerly ProQinase)
T3 sequence (P36897 34-503): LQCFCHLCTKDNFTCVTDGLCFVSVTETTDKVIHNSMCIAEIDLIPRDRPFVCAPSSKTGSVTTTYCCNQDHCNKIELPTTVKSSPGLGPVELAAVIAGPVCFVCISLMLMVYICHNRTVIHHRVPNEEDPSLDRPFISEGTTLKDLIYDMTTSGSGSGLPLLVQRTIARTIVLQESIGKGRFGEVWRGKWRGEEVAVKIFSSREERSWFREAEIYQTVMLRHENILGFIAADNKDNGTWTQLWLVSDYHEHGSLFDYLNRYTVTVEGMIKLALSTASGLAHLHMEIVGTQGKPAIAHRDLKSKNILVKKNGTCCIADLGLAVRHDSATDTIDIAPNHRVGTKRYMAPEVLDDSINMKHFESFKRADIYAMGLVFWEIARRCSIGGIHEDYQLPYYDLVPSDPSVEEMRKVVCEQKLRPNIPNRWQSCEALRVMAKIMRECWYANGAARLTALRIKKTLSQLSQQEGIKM
Description: as §1

[4] = molecular target: T4, PLK1 (Homo sapiens, UniProt P53350)
T4 construct: purchased Reaction Biology Europe GmbH (formerly ProQinase)
Description: as §1

[5] = molecular target: T5, LRRK2 (Homo sapiens, UniProt Q5S007)
T5 construct: purchased Reaction Biology Europe GmbH (formerly ProQinase)
Description: as §1

[6] = molecular target: T6, LIMK2 (Homo sapiens, UniProt P53671)
T6 construct: purchased Reaction Biology Europe GmbH (formerly ProQinase)
Description: as §1

[7] = molecular target: T7, MARK2 (Homo sapiens, UniProt Q7KZI7)
T7 construct: purchased Reaction Biology Europe GmbH (formerly ProQinase)
Description: as §1

[8] = molecular target: T8, MST1 (Homo sapiens, UniProt Q13043)
T8 construct: purchased Reaction Biology Europe GmbH (formerly ProQinase)
T8 sequence (Q13043 1-487): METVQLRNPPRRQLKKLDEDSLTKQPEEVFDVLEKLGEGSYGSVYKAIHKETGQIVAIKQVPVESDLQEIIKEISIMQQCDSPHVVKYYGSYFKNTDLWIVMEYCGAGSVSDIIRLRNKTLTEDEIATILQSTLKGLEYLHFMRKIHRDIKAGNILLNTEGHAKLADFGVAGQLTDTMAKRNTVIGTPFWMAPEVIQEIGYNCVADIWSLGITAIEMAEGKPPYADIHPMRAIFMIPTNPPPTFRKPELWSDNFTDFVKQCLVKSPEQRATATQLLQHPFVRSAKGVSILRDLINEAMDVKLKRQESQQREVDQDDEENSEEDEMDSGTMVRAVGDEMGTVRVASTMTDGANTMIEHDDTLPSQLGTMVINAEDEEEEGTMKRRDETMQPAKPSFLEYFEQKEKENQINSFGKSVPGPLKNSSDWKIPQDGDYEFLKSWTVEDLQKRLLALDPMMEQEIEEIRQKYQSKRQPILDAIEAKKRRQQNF
Description: as §1

[9] = molecular target: T9, ULK2 (Homo sapiens, UniProt Q8IYT8)
T9 construct: purchased Reaction Biology Europe GmbH (formerly ProQinase)
T9 sequence (Q8IYT8 1-1036): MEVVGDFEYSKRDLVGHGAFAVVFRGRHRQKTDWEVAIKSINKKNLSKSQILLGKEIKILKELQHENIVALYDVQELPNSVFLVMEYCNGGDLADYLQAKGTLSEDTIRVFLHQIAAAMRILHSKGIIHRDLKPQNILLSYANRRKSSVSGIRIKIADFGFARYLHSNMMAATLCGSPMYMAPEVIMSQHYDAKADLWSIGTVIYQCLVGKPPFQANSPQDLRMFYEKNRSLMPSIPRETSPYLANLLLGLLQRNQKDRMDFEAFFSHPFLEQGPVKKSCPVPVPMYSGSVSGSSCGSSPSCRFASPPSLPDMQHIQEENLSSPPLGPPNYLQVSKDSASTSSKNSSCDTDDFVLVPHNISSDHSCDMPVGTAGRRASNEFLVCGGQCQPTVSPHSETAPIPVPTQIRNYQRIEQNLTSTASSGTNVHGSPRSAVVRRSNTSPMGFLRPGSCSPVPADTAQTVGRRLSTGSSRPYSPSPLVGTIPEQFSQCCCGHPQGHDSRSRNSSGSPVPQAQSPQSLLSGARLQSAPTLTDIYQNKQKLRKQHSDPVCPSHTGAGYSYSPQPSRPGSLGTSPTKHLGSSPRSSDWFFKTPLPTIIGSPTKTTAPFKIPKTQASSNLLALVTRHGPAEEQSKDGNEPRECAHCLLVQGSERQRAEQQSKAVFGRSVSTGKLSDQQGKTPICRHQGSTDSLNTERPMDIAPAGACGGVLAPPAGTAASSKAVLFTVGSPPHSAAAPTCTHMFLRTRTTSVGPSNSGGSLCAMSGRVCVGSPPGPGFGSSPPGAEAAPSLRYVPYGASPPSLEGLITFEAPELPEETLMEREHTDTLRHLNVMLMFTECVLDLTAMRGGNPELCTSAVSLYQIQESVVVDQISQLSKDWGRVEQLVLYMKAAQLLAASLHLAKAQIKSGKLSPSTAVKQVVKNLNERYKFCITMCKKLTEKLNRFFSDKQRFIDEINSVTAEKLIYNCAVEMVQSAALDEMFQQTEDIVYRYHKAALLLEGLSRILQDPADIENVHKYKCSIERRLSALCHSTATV
Description: as §1

[10] = molecular target: T10, CDK9/CycT1 (Homo sapiens, UniProt P50750)
T10 construct: purchased Reaction Biology Europe GmbH (formerly ProQinase)
Description: as §1

[11] = molecular target: T11, JNK1 (Homo sapiens, UniProt P45983)
T11 construct: purchased Reaction Biology Europe GmbH (formerly ProQinase)
Description: as §1

[12] = molecular target: T12, FGFR3 (Homo sapiens, UniProt P22607)
T12 construct: purchased Reaction Biology Europe GmbH (formerly ProQinase)
Description: as §1

T10 sequence (P50750 whole entry): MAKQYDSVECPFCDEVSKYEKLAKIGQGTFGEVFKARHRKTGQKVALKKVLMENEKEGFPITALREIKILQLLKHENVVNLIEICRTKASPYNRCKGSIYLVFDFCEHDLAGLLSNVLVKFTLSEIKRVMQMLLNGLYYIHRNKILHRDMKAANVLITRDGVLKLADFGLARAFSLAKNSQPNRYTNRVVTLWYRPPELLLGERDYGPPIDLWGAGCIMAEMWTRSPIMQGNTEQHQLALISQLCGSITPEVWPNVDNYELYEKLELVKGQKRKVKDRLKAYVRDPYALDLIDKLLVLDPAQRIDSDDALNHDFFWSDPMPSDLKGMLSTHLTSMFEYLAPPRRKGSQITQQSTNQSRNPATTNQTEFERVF
T10 sequence (O60563 whole entry partner): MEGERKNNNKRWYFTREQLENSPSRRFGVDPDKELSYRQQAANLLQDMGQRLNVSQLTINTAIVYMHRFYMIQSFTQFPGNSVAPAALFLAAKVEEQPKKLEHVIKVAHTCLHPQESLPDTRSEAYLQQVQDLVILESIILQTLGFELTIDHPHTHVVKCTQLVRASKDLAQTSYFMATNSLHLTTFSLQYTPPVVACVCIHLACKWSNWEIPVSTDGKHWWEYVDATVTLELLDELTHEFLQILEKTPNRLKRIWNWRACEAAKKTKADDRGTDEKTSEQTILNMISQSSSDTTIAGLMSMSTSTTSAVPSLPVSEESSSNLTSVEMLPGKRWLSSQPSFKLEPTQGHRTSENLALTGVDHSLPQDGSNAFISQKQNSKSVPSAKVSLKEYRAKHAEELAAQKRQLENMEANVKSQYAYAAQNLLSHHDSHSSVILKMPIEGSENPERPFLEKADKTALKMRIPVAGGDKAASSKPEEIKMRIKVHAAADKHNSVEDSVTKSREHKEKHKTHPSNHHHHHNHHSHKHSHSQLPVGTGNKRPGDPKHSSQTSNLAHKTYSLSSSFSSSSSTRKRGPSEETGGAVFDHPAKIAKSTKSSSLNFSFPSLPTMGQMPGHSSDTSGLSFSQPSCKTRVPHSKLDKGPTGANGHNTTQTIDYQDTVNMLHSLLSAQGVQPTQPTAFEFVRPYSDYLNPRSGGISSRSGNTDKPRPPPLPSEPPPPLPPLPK
T1 sequence (O43293 whole entry): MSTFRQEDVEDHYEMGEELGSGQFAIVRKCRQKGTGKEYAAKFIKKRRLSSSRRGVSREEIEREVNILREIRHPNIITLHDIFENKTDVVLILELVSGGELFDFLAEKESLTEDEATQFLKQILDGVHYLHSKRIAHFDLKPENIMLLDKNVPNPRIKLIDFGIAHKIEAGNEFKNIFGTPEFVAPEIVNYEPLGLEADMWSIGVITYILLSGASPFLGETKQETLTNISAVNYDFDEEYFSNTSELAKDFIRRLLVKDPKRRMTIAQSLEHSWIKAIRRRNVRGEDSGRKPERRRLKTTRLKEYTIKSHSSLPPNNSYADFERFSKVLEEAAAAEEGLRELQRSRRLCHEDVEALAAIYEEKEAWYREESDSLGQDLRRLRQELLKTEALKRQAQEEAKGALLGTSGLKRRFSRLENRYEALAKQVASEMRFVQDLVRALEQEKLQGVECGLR
T6 sequence (P53671 whole entry): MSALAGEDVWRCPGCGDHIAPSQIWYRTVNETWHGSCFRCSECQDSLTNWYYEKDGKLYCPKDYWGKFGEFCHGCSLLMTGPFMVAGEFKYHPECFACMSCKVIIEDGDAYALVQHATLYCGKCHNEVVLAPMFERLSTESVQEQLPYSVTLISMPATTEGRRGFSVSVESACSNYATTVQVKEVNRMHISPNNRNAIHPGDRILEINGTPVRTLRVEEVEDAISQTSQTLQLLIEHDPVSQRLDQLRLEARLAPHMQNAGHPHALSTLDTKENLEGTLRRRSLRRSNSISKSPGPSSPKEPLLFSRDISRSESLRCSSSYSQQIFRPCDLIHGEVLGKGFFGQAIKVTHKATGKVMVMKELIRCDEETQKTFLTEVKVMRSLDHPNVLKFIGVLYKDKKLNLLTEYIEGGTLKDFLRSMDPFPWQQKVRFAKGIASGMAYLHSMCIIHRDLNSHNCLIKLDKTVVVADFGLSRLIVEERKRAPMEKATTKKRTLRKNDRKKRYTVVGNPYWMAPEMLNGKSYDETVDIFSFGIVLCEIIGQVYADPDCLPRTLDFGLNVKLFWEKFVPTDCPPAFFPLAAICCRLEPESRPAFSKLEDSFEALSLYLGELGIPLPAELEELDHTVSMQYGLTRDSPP
T7 sequence (Q7KZI7 whole entry): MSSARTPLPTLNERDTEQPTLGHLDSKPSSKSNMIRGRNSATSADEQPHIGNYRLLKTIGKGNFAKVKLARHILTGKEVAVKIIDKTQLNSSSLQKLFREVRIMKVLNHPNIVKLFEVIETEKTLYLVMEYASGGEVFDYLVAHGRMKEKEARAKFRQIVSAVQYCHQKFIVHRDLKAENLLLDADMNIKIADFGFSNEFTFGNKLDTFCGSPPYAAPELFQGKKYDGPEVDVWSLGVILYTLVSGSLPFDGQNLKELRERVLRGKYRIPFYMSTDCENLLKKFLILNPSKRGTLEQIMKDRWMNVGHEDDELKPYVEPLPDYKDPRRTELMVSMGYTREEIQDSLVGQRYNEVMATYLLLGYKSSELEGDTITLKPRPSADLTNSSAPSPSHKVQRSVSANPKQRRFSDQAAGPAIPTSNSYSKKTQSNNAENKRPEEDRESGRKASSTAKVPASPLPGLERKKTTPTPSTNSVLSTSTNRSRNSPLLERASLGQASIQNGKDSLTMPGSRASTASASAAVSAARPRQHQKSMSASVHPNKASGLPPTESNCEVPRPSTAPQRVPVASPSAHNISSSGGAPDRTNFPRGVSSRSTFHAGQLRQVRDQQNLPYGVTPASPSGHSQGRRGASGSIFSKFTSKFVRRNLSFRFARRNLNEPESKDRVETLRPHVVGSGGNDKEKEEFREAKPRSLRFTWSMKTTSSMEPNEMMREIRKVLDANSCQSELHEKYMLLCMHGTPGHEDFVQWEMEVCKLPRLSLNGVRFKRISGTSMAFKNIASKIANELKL
T2 sequence (Q16644 whole entry): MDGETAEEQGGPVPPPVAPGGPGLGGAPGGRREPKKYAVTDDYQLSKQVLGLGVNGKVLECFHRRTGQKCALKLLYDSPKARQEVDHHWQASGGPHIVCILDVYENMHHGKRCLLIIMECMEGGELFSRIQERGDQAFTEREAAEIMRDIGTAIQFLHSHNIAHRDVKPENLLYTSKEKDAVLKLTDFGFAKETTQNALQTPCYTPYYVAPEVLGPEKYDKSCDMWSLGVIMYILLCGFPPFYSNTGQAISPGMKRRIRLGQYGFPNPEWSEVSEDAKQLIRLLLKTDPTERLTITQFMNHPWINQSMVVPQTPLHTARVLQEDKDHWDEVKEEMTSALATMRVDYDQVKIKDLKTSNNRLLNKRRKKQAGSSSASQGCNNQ
T12 sequence (P22607 23-806): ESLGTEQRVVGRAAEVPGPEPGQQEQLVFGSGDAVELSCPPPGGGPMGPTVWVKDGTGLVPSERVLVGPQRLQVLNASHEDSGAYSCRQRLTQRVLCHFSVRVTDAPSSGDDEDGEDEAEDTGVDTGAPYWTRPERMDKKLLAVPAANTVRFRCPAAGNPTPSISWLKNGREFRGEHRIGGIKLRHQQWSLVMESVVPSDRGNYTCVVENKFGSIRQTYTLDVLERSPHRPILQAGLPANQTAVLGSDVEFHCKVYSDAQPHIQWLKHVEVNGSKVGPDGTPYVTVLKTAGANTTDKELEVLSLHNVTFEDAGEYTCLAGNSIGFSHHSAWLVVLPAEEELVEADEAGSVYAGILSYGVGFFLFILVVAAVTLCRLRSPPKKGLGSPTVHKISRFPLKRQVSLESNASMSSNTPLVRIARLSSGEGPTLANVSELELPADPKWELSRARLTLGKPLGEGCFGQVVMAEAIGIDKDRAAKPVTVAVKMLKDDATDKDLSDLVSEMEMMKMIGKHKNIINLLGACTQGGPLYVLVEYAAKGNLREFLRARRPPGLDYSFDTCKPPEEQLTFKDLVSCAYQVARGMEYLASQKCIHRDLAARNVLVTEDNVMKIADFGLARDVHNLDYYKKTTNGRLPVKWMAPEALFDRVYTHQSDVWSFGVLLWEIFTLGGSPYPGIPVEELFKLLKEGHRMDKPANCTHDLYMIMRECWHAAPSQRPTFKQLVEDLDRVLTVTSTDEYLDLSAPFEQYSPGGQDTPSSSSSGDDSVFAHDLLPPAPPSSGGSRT
T11 sequence (P45983 whole entry): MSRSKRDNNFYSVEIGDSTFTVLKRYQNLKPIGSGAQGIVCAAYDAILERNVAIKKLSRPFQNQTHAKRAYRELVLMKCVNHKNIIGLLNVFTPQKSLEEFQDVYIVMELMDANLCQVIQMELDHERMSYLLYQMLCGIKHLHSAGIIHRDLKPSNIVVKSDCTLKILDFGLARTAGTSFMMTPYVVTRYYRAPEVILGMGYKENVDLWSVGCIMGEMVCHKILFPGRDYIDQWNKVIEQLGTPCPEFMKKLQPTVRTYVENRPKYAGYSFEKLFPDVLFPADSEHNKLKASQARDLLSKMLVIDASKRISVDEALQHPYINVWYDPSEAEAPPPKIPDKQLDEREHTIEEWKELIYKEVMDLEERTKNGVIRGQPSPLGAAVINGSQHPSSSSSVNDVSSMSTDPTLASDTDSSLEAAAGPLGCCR

In the case of COc1ccnc2[nH]cc(-c3cc(N)nc(N)c3)c12 [meriolin 16], the residual kinase activity ([1]; 0.03 µM) is reported as 98 % of control, the residual kinase activity ([1]; 0.3 µM) is reported as 51 % of control and the residual kinase activity ([2]; 0.03 µM) is reported as 99 % of control. The residual kinase activity ([2]; 0.3 µM) was 87 % of control, the residual kinase activity ([3]; 0.03 µM) was 65 % of control and the residual kinase activity ([3]; 0.3 µM) was 67 % of control. For the same molecule, the residual kinase activity ([4]; 0.03 µM) was 95 % of control, the residual kinase activity ([4]; 0.3 µM) was 90 % of control and the residual kinase activity ([5]; 0.03 µM) was 50 % of control. The residual kinase activity ([5]; 0.3 µM) was 8 % of control, the residual kinase activity ([6]; 0.03 µM) was 106 % of control and the residual kinase activity ([6]; 0.3 µM) was 101 % of control. The residual kinase activity ([7]; 0.03 µM) was 91 % of control, the residual kinase activity ([7]; 0.3 µM) was 88 % of control and the residual kinase activity ([8]; 0.03 µM) was 88 % of control. For the same molecule, the residual kinase activity ([8]; 0.3 µM) was 49 % of control, the residual kinase activity ([9]; 0.03 µM) was 96 % of control and the residual kinase activity ([9]; 0.3 µM) was 54 % of control. The residual kinase activity ([10]; 0.03 µM) was 13 % of control, the residual kinase activity ([10]; 0.3 µM) was 2 % of control and the residual kinase activity ([11]; 0.03 µM) was 102 % of control. The residual kinase activity ([11]; 0.3 µM) was 95 % of control, the residual kinase activity ([12]; 0.03 µM) was 93 % of control and the residual kinase activity ([12]; 0.3 µM) was 84 % of control.
With c1ccc(CNc2cc(-c3c[nH]c4ncccc34)ccn2)cc1 [meriolin 36] the residual kinase activity ([1]; 0.3 µM) was 80 % of control, the residual kinase activity ([1]; 3 µM) was 25 % of control and the residual kinase activity ([2]; 3 µM) was 90 % of control. The residual kinase activity ([3]; 0.3 µM) was 18 % of control, the residual kinase activity ([3]; 3 µM) was 0 % of control and the residual kinase activity ([4]; 0.3 µM) was 100 % of control. For the same molecule, the residual kinase activity ([4]; 3 µM) was 66 % of control, the residual kinase activity ([5]; 0.3 µM) was 1 % of control and the residual kinase activity ([5]; 3 µM) was 1 % of control. For the same molecule, the residual kinase activity ([6]; 0.3 µM) was 70 % of control, the residual kinase activity ([6]; 3 µM) was 27 % of control and the residual kinase activity ([7]; 0.3 µM) was 98 % of control. For the same molecule, the residual kinase activity ([7]; 3 µM) was 63 % of control, the residual kinase activity ([8]; 0.3 µM) was 4 % of control and the residual kinase activity ([8]; 3 µM) was 1 % of control. For the same molecule, the residual kinase activity ([9]; 0.3 µM) was 82 % of control, the residual kinase activity ([9]; 3 µM) was 45 % of control and the residual kinase activity ([10]; 0.3 µM) was 1 % of control. For the same molecule, the residual kinase activity ([10]; 3 µM) was 0 % of control, the residual kinase activity ([11]; 0.3 µM) was 74 % of control and the residual kinase activity ([11]; 3 µM) was 23 % of control. The residual kinase activity ([12]; 0.3 µM) was 64 % of control and the residual kinase activity ([12]; 3 µM) was 20 % of control.
